One substance from paper PMC3237616 (Molecular Biology of the Cell, 2011) can be followed below.

A word on the Km: it is the concentration of substrate that gives half-maximal velocity.

The subject of this experiment is PIK (PI4K; phosphatidylinositol 4-kinase). As to the kind of experiment: radiometric PtdInsP formation from […]-ATP, Lineweaver-Burk. Type of experiment: biochemical, Mus musculus. To be noted: co-substrate 32P-ATP; 25 °C; 10 min; cell homogenate; without added c-Fos.

Regarding PtdIns, the Km was determined as 254 µM.
